Non-standard residues stand in square brackets, D forms with d. Residues, ends and D or L forms follow the SMILES beside them. No end group written: not given here.
Legend:
C. glabrata DSY565 = experiment: Biofilm formation on bone cement (Palacos r) model implants in infected femur head; set-up: species or system Candida glabrata; details: microbes infiltrated from a hole between implants; 2 days; single experiment
Text: (§1) The poly(methyl methacrylate)-based bone cement with or without AMPs was implanted either inside infected holes or inside non-infected holes. In the latter case, the microbes infiltrated towards the implant from a hole made between them at roughly equal distance from each (Figure 3). This would simulate the authentic situation in which the pathogens can infect an orthopaedic implant by spreading through the bloodstream or contiguously from areas of infection. We evaluated the experiments on the basis of the amounts of microbes released from the biofilms supposedly formed on the surfaces of the implants that were removed from the infected bone samples.
(§2) The bone samples with bored holes inside were prepared and handled as above. The bone cement (Palacos®r, Hereaus Medical GmbH, Wehrheim, Germany) with AMP incorporated was prepared by swift and thorough mixing of the polymer powder component (poly-methylacrylate, methyl methacrylate, 125 mg) and AMP (10 mg) or antibiotic (10 mg) with the liquid monomer (methyl methacrylate, N,N-dimethyl-p-toluidine, hydroquinone and colorant E141, 70 μL). The resulting elastic paste was pressed using a 2 mL plastic syringe into two bored holes, where it polymerized and solidified. The paste without peptide for filling of the remaining two holes was prepared similarly by mixing the powder component (125 mg) and liquid component (68 μL). […]

[1] = system: C. albicans ATCC MYA-2876; experiment: as above; set-up: species or system Candida albicans; details: microbes infiltrated from a hole between implants, 2 days, single experiment
Text: as §1, §2

[2] = system: E. faecalis clinical isolate (Motol); experiment: microbe, parasite or virus in culture; type: cell-based; details: clinical isolate Motol; Bioscreen C; at least three times in duplicates
Procedure: (§3) Femur heads (ca. 70 pieces) taken from patients during hip replacement surgery were periodically purchased in the period between 2014–2017 as discarded from the bone tissue bank at University Hospital in Motol, Prague, Czech Republic. The reason for the replacements by artificial prosthesis was the worn out cartilage on the surface of their heads. Bone samples were stored at −80 °C under standard conditions of certified tissue banks. In the laboratory, they were kept at +5 °C overnight and then at room temperature for several hours before they could be used for the experiments. The experiments with this material were approved by the Ethics Committee for Multi-Centric Clinical Trials of the University Hospital Motol, Reference No: EK-655/15. Methicillin-resistant S. aureus (MRSA 6271) ATCC 43300 and P. aeruginosa (5482) ATCC 27853 were purchased from the Czech National Collection of Type Cultures, National Institute of Public Health, Prague, Czech Republic. Methicillin-resistant S. aureus (MRSA (L)) and P. aeruginosa (L) were obtained as multi-resistant clinical isolates from Liberec Regional Hospital, Liberec, Czech Republic. Methicillin-resistant S. aureus (MRSA (M)), E. faecalis and S. epidermidis were obtained as clinical isolates from University Hospital in Motol, Prague. Candida albicans (F7-39/IDE99) came from the mycological collection of the Faculty of Medicine, Palacky University, Olomouc, Czech Republic. C. albicans ATCC MYA-2876, C. tropicalis ATCC 750 and C. glabrata DSY565 were kindly provided by Dr. Hana Sychrová from the Institute of Physiology, Academy of Sciences of the Czech Republic, Prague. Vancomycin hydrochloride, gentamicin sulfate, ceftriaxone disodium salt, amphotericin B, fluconazole, and clotrimazole were obtained from Sigma-Aldrich, Prague, Czech Republic.
(§4) MIC values for peptides were established by observing growth of treated bacteria in HONEYCOMB 100-well microtiter plates (Helsinki, Finland) using a Bioscreen C instrument (Oy Growth Curves, Helsinki, Finland) as previously described. Haemolytic activity of peptides expressed as the concentration of a peptide required for lysis of 50% of human erythrocytes in the assay (LC50) was measured using a Tecan infinite M200 PRO reader (Tecan Austria GmbH, Grödig, Austria). Blood samples for determining haemolytic activity were obtained from healthy volunteers.

MRSA 6271 (ATCC 43300) = experiment: microbe, parasite or virus in culture; type: cell-based; details: growth in 100-well microtiter plates, Bioscreen C; tested at least three times in duplicates
Procedure: as §3, §4

[3] = system: MRSA clinical isolate from Liberec Regional Hospital (MRSA (L)); experiment: microbe, parasite or virus in culture; type: cell-based; details: clinical isolate Liberec; Bioscreen C; at least three times in duplicates
Procedure: as §3, §4

[4] = system: MRSA clinical isolate from University Hospital in Motol (MRSA (M)); experiment: microbe, parasite or virus in culture; type: cell-based; details: clinical isolate Motol; Bioscreen C; at least three times in duplicates
Procedure: as §3, §4

[5] = system: P. aeruginosa (5482) ATCC 27853; experiment: microbe, parasite or virus in culture; type: cell-based; details: Bioscreen C; at least three times in duplicates
Procedure: as §3, §4

[6] = system: P. aeruginosa clinical isolate from Liberec Regional Hospital; experiment: microbe, parasite or virus in culture; type: cell-based; details: clinical isolate Liberec; Bioscreen C; at least three times in duplicates
Procedure: as §3, §4

[7] = system: S. epidermidis clinical isolate (Motol); experiment: microbe, parasite or virus in culture; type: cell-based; details: clinical isolate Motol; Bioscreen C; at least three times in duplicates
Procedure: as §3, §4

Candida albicans = type: cell-based; details: Bioscreen C; at least three times in duplicates
Procedure: as §3, §4

human erythrocytes = experiment: Haemolysis assay; type: cell-based; details: concentration causing lysis of 50% of human red blood cells; at least three times in duplicates
Procedure: as §4

Micrococcus luteus = experiment: Drop diffusion test; type: cell-based; details: RP-HPLC peak of bone marrow extract containing the three defensins; not shown
Text: In several cases when an all-D isomeric peptide alone, or in combination with its parent L-isomer in a 1:4 ratio in the blend with the carrier were applied to the infected hole, we observed a zero microbial count. We suppose that the contribution of D-isomeric peptides (II, VII, X, XII) to bacterial eradication was due to their resistance to proteases either exerted by bacteria or originated from the cells of the bone tissue. In these cases, we detected intact all-D peptide in the extract of the fillings (recovered from the infected hole after completing the experiment) by Reversed-Phase (RP)-HPLC analysis (not shown). On the other hand, the RP-HPLC analyses of the extracts of the fillings containing solely L-peptides indicated partial to complete digestion of peptides by proteases. Nevertheless, we assume that in all cases presented in Table 3 and Figure 2, it was the fast killing effect of AMPs on bacteria that played a conclusive role in eradicating the infection in the bone samples. When carrying out the experiments, we had to take into account that the bacterial load in an infected hole also could be reduced by components of the bone marrow immune system, including blood cells such as neutrophils. […] In one of the RP-HPLC peaks, we detected by mass spectrometry the presence of three human α-defensins HNP1, HNP2, and HNP3 [32] […]

laboratory rats = details: infected femurs of laboratory rats treated locally; cited from earlier work
Text: Another issue might be the toxicity of these peptides when applied locally to the bone tissue of laboratory animals or humans. […] None of these animals died.

Compound | CFU/Implant, C. glabrata (C. glabrata DSY565) | CFU/Implant, C. albicans c [1] | Antimicrobial Activity MIC, E. f. b [2] [µM] | Antimicrobial Activity MIC, MRSA 6271 (MRSA 6271 (ATCC 43300)) [µM] | Antimicrobial Activity MIC, MRSA a [3] [µM] | Antimicrobial Activity MIC, MRSA b [4] [µM] | Antimicrobial Activity MIC, P. a. 5482 [5] [µM] | Antimicrobial Activity MIC, P. a. a [6] [µM] | Antimicrobial Activity MIC, S. e. b [7] [µM] | Antimicrobial Activity MIC, C. a. (Candida albicans) [µM] | Haemolytic Activity LC50 (human erythrocytes) [µM] | antimicrobial activity in drop diffusion tests (Micrococcus luteus) | animals died (laboratory rats) | signs of local or systemic toxicity (laboratory rats)
Clc1ccccc1C(c1ccccc1)(c1ccccc1)n1ccnc1 [Clotrimazole, clotrimazole, reference compound] | 1.2 × 10^6 CFU/implant |  |  |  |  |  |  |  |  |  |  |  |  | 
OC(Cn1cncn1)(Cn1cncn1)c1ccc(F)cc1F [Fluconazole, fluconazole, reference compound] |  | 3.6 × 10^4 CFU/implant |  |  |  |  |  |  |  |  |  |  |  | 
CC[C@H](C)[C@H](NC(=O)[C@H](CCCCN)NC(=O)[C@H](CCCCN)NC(=O)[C@@H](CC(C)C)NC(=O)[C@H](CC(C)C)NC(=O)[C@H](CCCCN)NC(=O)[C@H](CCSC)NC(=O)[C@H](Cc1c[nH]c2ccccc12)NC(=O)[C@H](CCCCN)NC(=O)CN)C(=O)N[C@@H](CC(C)C)C(=O)N[C@@H](CCCCN)C(N)=O [VIII] (H-GKWMKL[dL]KKILK-NH2; N-terminus assumed) | 2.4 × 10^3 CFU/implant | 6.0 × 10^3 CFU/implant | >100 | 18.7 | 13.3 | 32.0 | 5.0 | 32.0 | 4.0 | 8.0 | >400 |  |  | 
CYCRIPACIAGERRYGTCIYQGRLWAFCC [HNP2, human α-defensin detected in bone marrow extract of the femur head] |  |  |  |  |  |  |  |  |  |  |  | exhibited antimicrobial activity |  | 
GKWMKLLKKILK-NH2 [I] |  |  | 13.3 | 6.3 | 3.6 | 5.7 | 2.8 | 10.0 | 2.3 | 5.7 | 339 |  | None | did not notice any signs of local or systemic toxicity

— article PMC5874716, “Antimicrobial Peptides for Topical Treatment of Osteomyelitis and Implant-Related Infections: Study in the Spongy Bone” (Pharmaceuticals, 2018)
